Experimental data: paper PMC9364316, “Macromolecular and Solution Properties of the Recombinant Fusion Protein HUG” (Biomacromolecules, 2022)
pKd: −log10 of the molar value.

Biological target: T1, HUG (HELP-UnaG) (Anguilla japonica, UniProt P0DM59)
T1 construct: entire UnaG (139 aa) fused to the C-terminus of the synthetic human elastin-like polypeptide HELP (536 aa, VAPGVG hexapeptide repeats); fusion of 675 aa, 60,406 Da; expressed in E. coli, purified by inverse phase transition
Test: fluorescence titration (ex […] nm, em […] nm), nonlinear fit of […] binding model

T1 sequence (P0DM59 whole entry, the tested form may be a part): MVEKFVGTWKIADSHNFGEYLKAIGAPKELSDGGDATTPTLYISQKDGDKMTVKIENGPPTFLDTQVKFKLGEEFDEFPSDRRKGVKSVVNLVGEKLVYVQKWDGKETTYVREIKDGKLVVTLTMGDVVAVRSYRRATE

Compound C=CC1=C(C)/C(=C/c2[nH]c(Cc3[nH]c(/C=C4\NC(=O)C(C)=C4C=C)c(C)c3CCC(=O)O)c(CCC(=O)O)c2C)NC1=O [bilirubin] has a pKd of 8.96.
